The text below walks through data of publication PMC2621068 (Neuropeptides, 2008).

For series [1] the following is noted: in vivo; cited from earlier work.
Series [2] has as its system mice. The note with it: mouse, in vivo; cited from earlier work.
For series [3], the system named is NMDAR. The note with it: cited from earlier work.
Series [4] has as its system female Kuming mice. The note with it: mouse, in vivo.
The test system of series [5] is Kuming mice. In kind it is in vivo, mouse. The note with it: for first phase response of the formalin test (in words) / second phase response of the formalin test (in words): n = 8; for paw biting/licking behaviors after subcutaneous peptide (in words): mouse, in vivo, sc.
For series [6], the system named is Kuming mice. In kind it is in vivo, mouse. The note with it: for effect on writhing responses (in words): n = 8; for number of abdominal contortions: mouse, in vivo. A general note: In writhing tests, fewer writhes than in controls are read as antinociception.
Series [7] concerns Kuming mice. The note with it: mouse, in vivo; for edematogenic response after subcutaneous peptide (in words): sc.
The subject of series [8] is Kuming mice. The note with it: mouse, in vivo.
For series [9], the system named is mice. The note with it: mouse, in vivo.
Series [10] relates to NMDAR. The note with it: cited from earlier work. This is another data set of the same source.
Series [11] has as its system female mice. In kind it is in vivo, mouse. The note with it: for paw withdrawal latency as % of pre-administration values: mouse, in vivo.

“And” between values parts separate entries of the source, which are not always exact repeats. Equal entries are not always repeated.

In the case of conantokin-T [con-T], the “median toxic dose, rotarod test” value in [1] is “ca. 300 pmol”. For the same substance, the “percent inhibition of responses, first phase of the formalin test” value in [2] was 25-35%. The half-maximal inhibitory concentration (IC50) in series [3] is 400 nM. Besides, in [4], the “Paw withdrawal latency after peptide administration, 30 min” value (shortened to “Paw withdrawal latency … 30 min”) turned out to be 13.1 ± 3.1 s; the “Paw withdrawal latency after peptide administration, 90 min” value (from here on “Paw withdrawal latency … 90 min”) stood at 15.4 ± 4.8 s; the “Paw withdrawal latency after peptide administration, 150 min” value (shortened to “Paw withdrawal latency … 150 min”) was found to be 16.5 ± 4.6 s; the “Paw withdrawal latency after peptide administration, 240 min” value (“Paw withdrawal latency … 240 min” for short) came to 16.8 ± 4.5 s. Also, in series [4], the “Paw withdrawal latency before peptide administration” value is recorded as 11.9 ± 2.9 s and the “antinociception in the hot-plate test (in words)” value (“antinociception” below) is listed as “without effect”.

As for GEγγLQKNQγLIRγKSN-NH2 [con-G[γ7K]], in series [5], the “first phase response of the formalin test (in words)” value (“first phase response” for short) is reported as “significantly reduced the time spent responding to the afflicted paw”. The IC50 in series [3] was 220 nM. Moreover, in [4], the “Paw withdrawal latency … 30 min” value is 11.9 ± 4.3 s and 21.5 ± 12.5 s; the “Paw withdrawal latency before peptide administration” value was 14.9 ± 3.5 s and 15.1 ± 3.9 s. Also, the “effect on writhing responses (in words)” value in series [6] was “failed to attenuate writhing responses”.

As to GEγγLQγNQγLIRAKYN-NH2 [con-G[S16Y]], in series [7], the “Increase in paw width” value is 0.76 ± 0.05 mm; the “Injected paw width, after formalin injection” value was 2.33 ± 0.05 mm; the “Injected paw width, before formalin injection” value was found to be 1.57 ± 0.03 mm; the “edematogenic response after subcutaneous peptide (in words)” value is on record as “nor did they reduce the edematogenic response”. Moreover, in series [8], the “day 3 paw diameter after peptide injection” value stood at 2.26 ± 0.058 mm and the “day 3 paw diameter before peptide injection” value is given as 2.36 ± 0.039 mm. In addition, in [9], the “motor impairment in the rotarod test, comparison of the two peptides (in words)” value is reported as “reverse effect”; the “motor toxicity in the rotarod test relative to saline (in words)” value is given as “some toxicity”; the “rotarod stay time, 60 min versus 240 min test times (in words)” value is recorded as “no significant differences”. In [10], the “share of peptide associated with a low-affinity, non-receptor site” value is recorded as “approximately 80%”. In addition, in series [5], the “paw biting/licking behaviors after subcutaneous peptide (in words)” value is “did not significantly diminish paw biting/licking behaviors”, the “first phase response” value is listed as “significantly reduced the time spent responding to the afflicted paw” and the “second phase response of the formalin test (in words)” value (“second phase response” below) is reported as “highly effective in reducing the responses to the afflicted paw”. Besides, in series [3], the 50% inhibitory concentration (IC50) is 140 nM and the “increase in potency in the [3H]MK-801 binding assay compared to con-G” value is reported as 3.5 fold. The “paw withdrawal latency as % of pre-administration values” in series [11] came to 80%. Besides, the “increase of paw withdrawal latency compared to the day 3 controls” value in series [11] (n = 8) is on record as ~2 s. For the same substance, in series [4], the “Paw withdrawal latency before peptide administration” value is 13.4 ± 3.1 s and 9.0 ± 2.1 s; the “antinociception” value is listed as “highest antinociceptive activity”. In series [6], the “number of abdominal contortions” value stood at 6.4 ± 4.6 and the “effect on writhing responses (in words)” value was “significantly effective in modulating responses to the acid stimulus”.

With GEγγLQγNQγLIRAKSN-NH2 [con-G[γ14A]], in series [3], the half-inhibitory concentration (IC50) is 230 nM. Also, in [4], the “Paw withdrawal latency … 30 min” value came out at 10.0 ± 3.3 s; the “Paw withdrawal latency … 90 min” value turned out to be 20.4 ± 14.2 s; the “Paw withdrawal latency … 150 min” value is “^ˆ25.4 ± 9.3 s”; the “Paw withdrawal latency … 240 min” value is listed as “^ˆ22.8 ± 8.6 s”. For the same substance, in [4], the “Paw withdrawal latency before peptide administration” value stood at 11.3 ± 1.5 s and the “antinociception” value is reported as “ineffective at antinociception at all time points examined”.

Take GEγγLGKAQALIRAAYA-NH2 [Ala-con-G]: in [7], the “Increase in paw width” value was determined as 0.97 ± 0.05 mm; the “Injected paw width, after formalin injection” value is given as 2.56 ± 0.05 mm; the “Injected paw width, before formalin injection” value came out at 1.60 ± 0.02 mm. In series [10], the “components of binding to adult rat brain sections (in words)” value is listed as “only the high-affinity NMDAR-specific component of binding”. In series [5], the “first phase response” value was “significantly reduced the time spent responding to the afflicted paw” and the “second phase response” value is “neither Ala-con-G nor con-R[1-17] provided antinociception”. In addition, in series [3], the IC50 was 180 nM. Further, the “effect on withdrawal latencies in the CFA model (in words)” value in series [11] (n = 8) is given as “failed to alter withdrawal latencies”. In addition, in [4], the “Paw withdrawal latency … 30 min” value was 20.3 ± 8.6 s and 11.9 ± 3.4 s; the “Paw withdrawal latency … 90 min” value is 20.9 ± 5.7 s and 22.4 ± 9.5 s; the “Paw withdrawal latency … 150 min” value is 24.6 ± 10.4 s and 17.1 ± 7.5 s; the “Paw withdrawal latency … 240 min” value was 16.1 ± 5.0 s and 20.0 ± 16.1 s. In series [4], the “Paw withdrawal latency before peptide administration” value is 15.3 ± 3.0 s and 11.3 ± 1.9 s; the “antinociception” value was “ineffective at antinociception at all time points examined”. Besides, the “effect on writhing responses (in words)” value in series [6] is “failed to attenuate writhing responses”.

Consider “con-G[N8A]: NR2B-selective con-G variant (GEEELQEAQELIREKSN; not fully specified; Conantokin-G; UniProt P07231 81-97, looked up, variant N8A)”, for which the IC50 in series [3] is 490 nM. For the same substance, in [4], the “Paw withdrawal latency … 30 min” value is recorded as 11.6 ± 4.2 s; the “Paw withdrawal latency … 90 min” value came to 13.5 ± 4.8 s; the “Paw withdrawal latency … 150 min” value stood at 12.6 ± 2.5 s; the “Paw withdrawal latency … 240 min” value is reported as 13.8 ± 3.1 s. Moreover, in series [4], the “Paw withdrawal latency before peptide administration” value is given as 11.1 ± 2.5 s and the “antinociception” value was “ineffective at antinociception at all time points examined”.

As for conantokin-G [con-G], in [7], the “Increase in paw width” value turned out to be 0.83 ± 0.03 mm; the “Injected paw width, after formalin injection” value is 2.38 ± 0.03 mm; the “Injected paw width, before formalin injection” value is on record as 1.55 ± 0.02 mm; the “edematogenic response after subcutaneous peptide (in words)” value is “nor did they reduce the edematogenic response”. In addition, the “median toxic dose, rotarod test” value in series [1] is listed as “ca. 300 pmol”. Also, the “percent inhibition of responses, first phase of the formalin test” value in series [2] is 25-35%. In addition, in [5], the “paw biting/licking behaviors after subcutaneous peptide (in words)” value was “did not significantly diminish paw biting/licking behaviors”, the “first phase response” value is “significantly reduced the time spent responding to the afflicted paw” and the “second phase response” value was “highly effective in reducing the responses to the afflicted paw”. Besides, the IC50 in series [3] was 480 nM. Besides, the “paw withdrawal latency as % of pre-administration values” in series [11] was 80%. Also, in series [11] (n = 8), the “increase of paw withdrawal latency compared to the day 3 controls” value was “approximately 1 s”. Also, in [4], the “Paw withdrawal latency … 30 min” value is 12.2 ± 4.5 s and 12.6 ± 12.5 s; the “Paw withdrawal latency before peptide administration” value was 11.6 ± 2.1 s and 11.6 ± 2.5 s. Besides, in series [6], the “number of abdominal contortions” value came to 8.3 ± 6.0.

Usually IC50 stands for the concentration that inhibits the measured activity by half.
